System: level of expression of MMP-3 in blood
Assay: Level of expression of MMP-3 in blood stimulated with PMA, measured using flow cytometer (FACS)
Assay type: cell-based, human
Parameters: unit not given here
Settings: for level of expression of MMP-3, After: 500 ul whole blood, 90 ng PMA, 3 h + 6 h Brefeldin A; for level of expression of MMP-3, Total (After minus Before): PMA stimulation
Method: In order to implement the method of stimulating blood and to check the clinical value of the kit of the present invention, the level of expression of MMP-3 was checked using a flow cytometer. 3 ml of blood was collected to sodium citrate tube (BD vacutainer), and CBC (complete blood count) was measured immediately upon pumping-up the blood. Then, the blood was stimulated with the chemical substance of the present invention. 500 ul of whole blood was put into the 24 wells plate for cell culture, and 90 ng of PMA was added into the plate. Then, the cell culture plate was put into a 5% CO2 incubator, and was kept at 37 for 3 hours. After 3 hours, 200 ug/ml of Brefeldin A(SIGMA) was added into the plate, and placed at 37 for 6 hours.
After lapse of the total 9 hours, 50 ul of blood was extracted, and put into 2 tubes respectively. Then, 10 ul of CD45-PC5 10 and 10 ul of CD14-FITC were respectively added to the 2 tubes, mixed with each other, and placed in a darkroom at room temperature for 15 min. Then, 100 ul of RBC lysis buffer (Bechman coulter) was added to the 2 tubes respectively, and mixed with each other using a vortex. The mixtures were placed in a darkroom at room temperature for 15 min. Then, 4 ml of PBS was added to the 2 tubes respectively, and centrifuged to remove the supernatant. Here, the supernatant was not removed using pipette, but poured out to minimize the loss of cells. 100 ul of 0.1% saponin was added to the remaining cells, and stirred smoothly using pipette. Then, the mixture was placed in a darkroom at room temperature for 5min. Then, 10 ul of IgG1-PE was added to the control group and 10 ul of MMP-3-PE was added to the comparative group, and then the both groups were placed in a darkroom for 15 min. After 15 min, 4 ml of PBS was added to the each group, and centrifuged under the condition of 2000 g, 5 min and 4 to remove the supernatant. Then, 500 ul of fresh PBS was added to the each group, and fluorescence-activated cell sorting (FACS) was performed.

[1] = RA (R), patient with reduced activity after being treated with drugs
[2] = RA (S), patient with severe rheumatoid arthritis
[3] = RA (mi), patient with mild rheumatoid arthritis

Q: Which results are given for `CCCCCCCCCCCCCC(=O)O[C@@H]1[C@@H](C)[C@@]2(O)[C@@H](C=C(CO)C[C@]3(O)C(=O)C(C)=C[C@@H]23)[C@@H]2C(C)(C)[C@]12OC(C)=O` [PMA, Phorbol 12-myristate 13-acetate]?
A: level of expression of MMP-3, After (Normal1 (normal person)): 39.23; level of expression of MMP-3, Total (After minus Before) (Normal1 (normal person)): 12.56; level of expression of MMP-3, After (Normal2 (normal person)): 53.05; level of expression of MMP-3, Total (After minus Before) (Normal2 (normal person)): 11.49; level of expression of MMP-3, After [1]: 48.35; level of expression of MMP-3, Total (After minus Before) [1]: 14.86; level of expression of MMP-3, After [2]: 68.97; level of expression of MMP-3, Total (After minus Before) [2]: 43.64; level of expression of MMP-3, After [3]: 63.65; level of expression of MMP-3, Total (After minus Before) [3]: 27.52; level of expression of MMP-3, After (RA (s)): 64.53; level of expression of MMP-3, Total (After minus Before) (RA (s)): 26.12
